Experimental data as given in US6737383B1, “Herbicidal oxadiazolidines” (priority 1999, dated 2004).

Experiments:
bedstraw = test: Test B pre/postemergence bedstraw; assay type: in vivo, Galium aparine; details: Preemergence
Procedure, shortened: (§1)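 Herbicidal effect was estimated by eye on a ten-point control scale after plants spent twelve to sixteen days in a greenhouse following soil or foliar treatment. Foliar sprays targeted plants at one to four leaves; all doses were formulated in a non-phytotoxic solvent with surfactant.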

blackgrass = test: Test B pre/postemergence blackgrass; assay type: in vivo, Alopecurus myosuroides
Procedure, shortened: as §1

surinam grass = test: Test B pre/postemergence surinam grass; assay type: in vivo, Brachiaria decumbens
Procedure, shortened: as §1

cocklebur = test: Test B pre/postemergence cocklebur; assay type: in vivo, Xanthium strumarium
Procedure, shortened: as §1

corn = test: Test B pre/postemergence corn; assay type: in vivo, Zea mays
Procedure, shortened: as §1

crabgrass = test: Test B pre/postemergence crabgrass; assay type: in vivo, Digitaria sanguinalis
Procedure, shortened: as §1

giant foxtail = test: Test B pre/postemergence giant foxtail; assay type: in vivo, Setaria faberii
Procedure, shortened: as §1

morningglory = test: Test B pre/postemergence morningglory; assay type: in vivo, Ipomoea hederacea
Procedure, shortened: as §1

pigweed = test: Test B pre/postemergence pigweed; assay type: in vivo, Amaranthus retroflexus
Procedure, shortened: as §1

rape = test: Test B pre/postemergence rape; assay type: in vivo, Brassica napus
Procedure, shortened: as §1

soybean = test: Test B pre/postemergence soybean; assay type: in vivo, Glycine max
Procedure, shortened: as §1

sugar beet = test: Test B pre/postemergence sugar beet; assay type: in vivo, Beta vulgaris
Procedure, shortened: as §1

velvetleaf = test: Test B pre/postemergence velvetleaf; assay type: in vivo, Abutilon theophrasti
Procedure, shortened: as §1

wheat = test: Test B pre/postemergence wheat; assay type: in vivo, Triticum aestivum
Procedure, shortened: as §1

wild oat = test: Test B pre/postemergence wild oat; assay type: in vivo, Avena fatua
Procedure, shortened: as §1

purple nutsedge = test: Test B pre/postemergence purple nutsedge; assay type: in vivo, Cyperus rotundus
Procedure, shortened: as §1

rice = test: Test B flood test rice; assay type: in vivo, Oryza sativa
Procedure, shortened: (§2)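 Plants were grown to the 2-leaf stage before treatment with test chemical, then held in a greenhouse for twelve to sixteen days. Injury was visually rated against untreated controls on a 0–10 scale, where 0 is no effect and 10 is complete control.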

smallflower flatsedge = test: Test B flood test smallflower flatsedge; assay type: in vivo, Cyperus difformis
Procedure, shortened: as §2

duck salad = test: Test B flood test duck salad; assay type: in vivo, Heteranthera limosa
Procedure, shortened: as §2

bamyardgrass = test: Test B flood test barnyardgrass; assay type: in vivo, Echinochloa crus-galli
Procedure, shortened: as §2

[1] = Postemergence, Rate 125 g/ha, scale of 0 to 10 where 0 is no effect and 10 is complete control
[2] = Postemergence, Rate 250 g/ha, scale of 0 to 10, 0 is no effect, 10 is complete control
[3] = Postemergence, Rate 500 g/ha, scale of 0 to 10 where 0 is no effect and 10 is complete control
[4] = Preemergence, Rate 62 g/ha, scale 0 to 10 (0 no effect, 10 complete control)
[5] = Preemergence, Rate 125 g/ha, scale of 0 to 10 where 0 is no effect and 10 is complete control
[6] = Preemergence, Rate 500 g/ha, scale of 0 to 10 where 0 is no effect and 10 is complete control
[7] = Postemergence, Rate 62 g/ha, scale of 0 to 10, 0 is no effect, 10 is complete control
[8] = Rate 62 g/ha, flood test species, Pre-emergence, visual evaluation after twelve to sixteen days
[9] = Rate 125 g/ha, under heading Pre-emergence, flood test species, visual evaluation after twelve to sixteen days
[10] = Rate 250 g/ha, Pre-emergence (flood test species), scale 0 to 10, 0 is no effect, 10 is complete control
[11] = Rate 500 g/ha, Pre-emergence section of Table B, 0 to 10 scale (0 no effect, 10 complete control)

Structure (SMILES): CC(C)N(C(=O)n1oc(=O)n(C(C)CBr)c1=O)c1ccc(F)cc1F (stereo not drawn) [Compound 594]
- Bedstraw plant response rating (bedstraw; Rate 62 g/ha, scale 0 to 10 (0 no effect, 10 complete control)): 0
- Bedstraw plant response rating (bedstraw; Rate 125 g/ha, scale of 0 to 10 where 0 is no effect and 10 is complete control): 0
- Bedstraw plant response rating (0 to 10 scale) (bedstraw; Rate 250 g/ha): 2
- Bedstraw plant response rating (bedstraw; Rate 500 g/ha, scale of 0 to 10 where 0 is no effect and 10 is complete control): 9
- Plant response rating, Blackgrass (blackgrass; [1]): 5
- Blackgrass plant response rating (blackgrass; [2]): 5
- Plant response rating, Blackgrass (blackgrass; [3]): 5
- Blackgrass plant response rating (blackgrass; [4]): 5
- Blackgrass plant response rating (blackgrass; [5]): 5
- Blackgrass plant response rating (0 to 10 scale) (blackgrass; Preemergence, Rate 250 g/ha): 9
- Blackgrass plant response rating (blackgrass; [6]): 9
- B. signalgrass plant response rating (surinam grass; [7]): 0
- Plant response rating, B. signalgrass (surinam grass; [1]): 0
- B. signalgrass plant response rating (surinam grass; [2]): 2
- Plant response rating, B. signalgrass (surinam grass; [3]): 3
- B. signalgrass plant response rating (surinam grass; [4]): 3
- B. signalgrass plant response rating (surinam grass; [5]): 3
- B. signalgrass plant response rating (0 to 10 scale, 0 is no effect, 10 is complete control) (surinam grass; Preemergence, Rate 250 g/ha): 5
- B. signalgrass plant response rating (surinam grass; [6]): 7
- Cocklebur plant response rating (cocklebur; [7]): 0
- Plant response rating, Cocklebur (cocklebur; [1]): 0
- Cocklebur plant response rating (cocklebur; [2]): 3
- Plant response rating, Cocklebur (cocklebur; [3]): 4
- Cocklebur plant response rating (cocklebur; [5]): 0
- Cocklebur plant response rating (0 to 10 scale) (cocklebur; Preemergence, Rate 250 g/ha): 0
- Plant response rating, Cocklebur (cocklebur; [6]): 2
- Corn plant response rating (corn; [7]): 0
- Plant response rating, Corn (corn; [1]): 0
- Corn plant response rating (corn; [2]): 0
- Plant response rating, Corn (corn; [3]): 0
- Corn plant response rating (corn; [4]): 0
- Corn plant response rating (corn; [5]): 0
- Corn plant response rating (0 to 10 scale) (corn; Preemergence, Rate 250 g/ha): 2
- Plant response rating, Corn (corn; [6]): 4
- Crabgrass plant response rating (crabgrass; [7]): 5
- Plant response rating, Crabgrass (crabgrass; [1]): 7
- Crabgrass plant response rating (crabgrass; [2]): 9
- Plant response rating, Crabgrass (crabgrass; [3]): 9
- Crabgrass plant response rating (crabgrass; [4]): 9
- Crabgrass plant response rating (crabgrass; [5]): 9
- Plant response rating, Crabgrass (crabgrass; [6]): 9
- Giant foxtail plant response rating (giant foxtail; [7]): 6
- Plant response rating, Giant foxtail (giant foxtail; [1]): 7
- Giant foxtail plant response rating (giant foxtail; [2]): 7
- Plant response rating, Giant foxtail (giant foxtail; [3]): 9
- Giant foxtail plant response rating (giant foxtail; [4]): 9
- Giant foxtail plant response rating (giant foxtail; [5]): 9
- Plant response rating, Giant foxtail (giant foxtail; [6]): 10
- Morningglory plant response rating (morningglory; [7]): 0
- Plant response rating, Morningglory (morningglory; [1]): 2
- Morningglory plant response rating (morningglory; [2]): 2
- Plant response rating, Morningglory (morningglory; [3]): 7
- Morningglory plant response rating (morningglory; [4]): 0
- Morningglory plant response rating (morningglory; [5]): 0
- Plant response rating, Morningglory (morningglory; [6]): 6
- Plant response rating, Redroot pigweed (pigweed; [1]): 0
- Redroot pigweed plant response rating (pigweed; [2]): 3
- Plant response rating, Redroot pigweed (pigweed; [3]): 4
- Redroot pigweed plant response rating (pigweed; [4]): 0
- Redroot pigweed plant response rating (pigweed; [5]): 0
- Plant response rating, Redroot pigweed (pigweed; [6]): 10
- Rape plant response rating (rape; [7]): 0
- Plant response rating, Rape (rape; [1]): 0
- Rape plant response rating (rape; [2]): 0
- Plant response rating, Rape (rape; [3]): 0
- Rape plant response rating (rape; [4]): 0
- Rape plant response rating (rape; [5]): 0
- Plant response rating, Rape (rape; [6]): 9
- Plant response rating, Soybean (soybean; [1]): 0
- Plant response rating, Soybean (soybean; [3]): 4
- Soybean plant response rating (soybean; [4]): 0
- Soybean plant response rating (soybean; [5]): 0
- Plant response rating, Soybean (soybean; [6]): 4
- Plant response rating, Sugarbeets (sugar beet; [1]): 5
- Sugarbeets plant response rating (sugar beet; [2]): 5
- Plant response rating, Sugarbeets (sugar beet; [3]): 5
- Sugarbeets plant response rating (sugar beet; [4]): 0
- Sugarbeets plant response rating (sugar beet; [5]): 0
- Plant response rating, Sugarbeets (sugar beet; [6]): 8
- Plant response rating, Velvetleaf (velvetleaf; [1]): 3
- Velvetleaf plant response rating (velvetleaf; [2]): 3
- Plant response rating, Velvetleaf (velvetleaf; [3]): 5
- Velvetleaf plant response rating (velvetleaf; [4]): 2
- Velvetleaf plant response rating (velvetleaf; [5]): 4
- Plant response rating, Velvetleaf (velvetleaf; [6]): 7
- Plant response rating, Wheat (wheat; [1]): 0
- Wheat plant response rating (wheat; [2]): 0
- Plant response rating, Wheat (wheat; [3]): 0
- Wheat plant response rating (wheat; [4]): 0
- Wheat plant response rating (wheat; [5]): 0
- Plant response rating, Wheat (wheat; [6]): 2
- Plant response rating, Wild oats (wild oat; [1]): 0
- Wild oats plant response rating (wild oat; [2]): 0
- Plant response rating, Wild oats (wild oat; [3]): 0
- Wild oats plant response rating (wild oat; [4]): 0
- Wild oats plant response rating (wild oat; [5]): 0
- Plant response rating, Wild oats (wild oat; [6]): 5
- Nutsedge plant response rating (purple nutsedge; [7]): 0
- Plant response rating, Nutsedge (purple nutsedge; [1]): 0
- Nutsedge plant response rating (purple nutsedge; [2]): 3
- Plant response rating, Nutsedge (purple nutsedge; [3]): 3
- Nutsedge plant response rating (purple nutsedge; [4]): 0
- Nutsedge plant response rating (purple nutsedge; [5]): 0
- Plant response rating, Nutsedge (purple nutsedge; [6]): 6
- Plant response rating, Rice (0 to 10 scale, 0 is no effect, 10 is complete control) (rice; [8]): 0
- Rice plant response rating (0 to 10 scale, 0 is no effect, 10 is complete control) (rice; [9]): 0
- Rice plant response rating (rice; [10]): 0
- Rice plant response rating (rice; [11]): 0
- Plant response rating, S. Flatsedge (0 to 10 scale, 0 is no effect, 10 is complete control) (smallflower flatsedge; [8]): 0
- S. Flatsedge plant response rating (0 to 10 scale, 0 is no effect, 10 is complete control) (smallflower flatsedge; [9]): 0
- S. Flatsedge plant response rating (smallflower flatsedge; [10]): 0
- S. Flatsedge plant response rating (smallflower flatsedge; [11]): 0
- Plant response rating, Ducksalad (0 to 10 scale, 0 is no effect, 10 is complete control) (duck salad; [8]): 0
- Ducksalad plant response rating (0 to 10 scale, 0 is no effect, 10 is complete control) (duck salad; [9]): 0
- Ducksalad plant response rating (duck salad; [10]): 0
- Ducksalad plant response rating (duck salad; [11]): 0
- Plant response rating, Barnyardgrass (0 to 10 scale, 0 is no effect, 10 is complete control) (bamyardgrass; [8]): 0
- Barnyardgrass plant response rating (0 to 10 scale, 0 is no effect, 10 is complete control) (bamyardgrass; [9]): 0
- Barnyardgrass plant response rating (bamyardgrass; [10]): 0
- Barnyardgrass plant response rating (bamyardgrass; [11]): 0
